Experiments:
Assay type in all cases: biochemical, Amsacta moorei entomopoxvirus
AmEPV ligase [1] = target: T1, AmEPV ligase (Betaentomopoxvirus amoorei, UniProt Q9EMK7); settings: for support of ligase activity as divalent cation: 5 mM
AmEPV ligase [2] = target: T1, AmEPV ligase; assay: Nucleotide cofactor specificity of AmEPV ligase in nick ligation
Protocol: Reaction mixtures (20 μl) containing 50 mM Tris-HCl (pH 7.5), 10 mM (NH4)2SO4, 5 mM DTT, 5 mM MgCl2, 1 pmol of ^32P-labeled nicked DNA, 32 ng of AmEPV ligase, and 50 μM of the indicated nucleotide were incubated for 30 min at 22° C. A control reaction contained no added nucleotide cofactor (none). The reaction products were resolved by polyacrylamide gel electrophoresis. An autoradiogram of the gel is shown.
A low level of nick ligation could be detected in the absence of added nucleotide (FIG. 6). Cofactor-independent ligation was attributed to pre-adenylated ligase in the enzyme preparation. […] Inclusion of NAD^+ in the reaction mixture stimulated nick ligation such that ˜90% of the input substrate molecules were sealed (FIG. 6). […] Indeed, none of the standard rNTPs or dNTPs were able to satisfy the requirement of AmEPV ligase for a high energy cofactor (FIG. 6). […] A Km of 9 μM NAD^+ was calculated from a double-reciprocal plot of the data.

AmEPV ligase [3] = target: T1, AmEPV ligase; assay: Step 3 phosphodiester formation at a pre-adenylated nick by AmEPV ligase; settings: 50 μM NAD+
Protocol: Truncated derivatives of AmEPV ligase deleted for motif Ia (NΔ70) or for the OB and HhH domains (CΔ216) were purified by Ni-agarose and phosphocellulose column cheomtography. FIG. 8A: Aliquots (3 μg) of full-sized AmEPV ligase (WT), NΔ70, and CΔ216 were analyzed by SDS-PAGE. A Coomassie blue-stained gel is shown. The positions and sizes (in kDa) of marker proteins are indicated on the left. FIG. 8B: Ligase adenylation reaction mixtures (20 μl) containing 50 mM Tris-HCl (pH 7.5), 5 mM DTT, 5 mM MgCl2, 1 μM [α-^32P]NAD^+ and 8 pmol of WT AmEPV ligase, NΔ70, or CΔ216 were incubated for 15 min at 22° C. The reaction products were resolved by SDS-PAGE and visualized by autoradiography. The positions and sizes (in kDa) of marker proteins are indicated on the right. FIG. 8C: Ligation of nicked DNA and nicked DNA-adenylate. Reaction mixtures (20 μl) containing 50 mM Tris-HCl (pH 7.5), 10 mM (NH4)2SO4, 5 mM DTT, 5 mM MgCl2, either 200 fmol of ^32P-labeled nicked DNA (pDNA) plus 50 μM NAD^+ or 200 fmol ^32P-labeled nicked DNA-adenylate (AppDNA) and no NAD^+, and 2 pmol of WT AmEPV ligase, NΔ70, or CΔ216 were incubated for 30 min at 22° C. The reaction products were resolved by denaturing PAGE. […]
FIG. 9A: Kinetic analysis of step 3. […] The mixtures were adjusted to 5% glycerol and then analyzed by electrophoresis through a 5% native polyacrylamide gel containing 90 mM Tris-borate, 2.5 mM EDTA. […]

In the case of `[Mn+2]` [Manganese], the “support of ligase activity as divalent cation” value (shortened to “support of ligase activity”) (AmEPV ligase [1]) is reported as “active, albeit less than magnesium”.

With `[Zn+2]` [zinc] the “support of ligase activity” value (AmEPV ligase [1]) was “did not support ligase activity”.

`[Cu+2]` [cooper] was tested, and the “support of ligase activity” value (AmEPV ligase [1]) was “did not support ligase activity”.

With `NC(=O)c1ccc[n+]([C@@H]2O[C@H](COP(=O)([O-])OP(=O)(O)OC[C@H]3O[C@@H](n4cnc5c(N)ncnc54)[C@H](OP(=O)(O)O)[C@@H]3O)[C@@H](O)[C@H]2O)c1` [NADP] the “stimulation of nick ligation as high energy cofactor” value (AmEPV ligase [2]; 50 μM nucleotide) was “inactive”.

In the case of `[Mg+2]` [magnesium], the “optimal divalent cation concentration for nick joining” value (AmEPV ligase [1]) is reported as 5 mM.

`Nc1ncnc2c1ncn2[C@@H]1O[C@H](COP(=O)(O)OP(=O)(O)OP(=O)(O)O)[C@@H](O)[C@H]1O` [ATP] was tested, and the “stimulation of nick ligation as high energy cofactor” value (AmEPV ligase [2]; 50 μM nucleotide) was “failed to stimulate”.

`[Ca+2]` [calcium] was tested, and the “support of ligase activity” value (AmEPV ligase [1]) was “did not support ligase activity”.

With `NC(=O)c1ccc[n+]([C@@H]2O[C@H](COP(=O)([O-])OP(=O)(O)OC[C@H]3O[C@@H](n4cnc5c(N)ncnc54)[C@H](O)[C@@H]3O)[C@@H](O)[C@H]2O)c1` [NAD^+] the “input substrate molecules sealed with nucleotide included” value (AmEPV ligase [2]; 50 μM nucleotide) was about 90%, the “NAD+ concentration at which nick joining activity plateaued” value (AmEPV ligase [2]; sub-saturating enzyme) was 50 to 100 µM and the “effect on step 3 catalysis by NΔ70” value (AmEPV ligase [3]; NΔ70) was “no effect whatsoever”. For the same compound, the “decrement in extent of step 3 ligation by wild-type ligase” value (AmEPV ligase [3]; wild-type AmEPV ligase) was 5 fold.

For `[Co+2]` [cobalt], the “support of ligase activity” value (AmEPV ligase [1]) was “active, albeit less than magnesium”.

— US6787341B2, “Pharmacological targeting of bacterial DNA ligase for treatment and prevention of bacterial infections” (priority 2001, dated 2004)
